Measured values: patent publication US20240270749A1, “1,2,4-TRIAZOLO[1,5-A]PYRIMIDINE-BASED SLC16A3 INHIBITORS AND THEIR THERAPEUTIC USE” (CEMM - FORSCHUNGSZENTRUM FÜR MOLEKULARE MEDIZIN GMBH, priority 2021, published 2024)
Entries after “also recorded” stand apart in the source; their conditions may differ. Like-named read-outs stand apart in the source and are kept apart here.

Assays:
[1] = tested on: HAP1 SLC16A1^−/− cells; test: Synthetic lethality guided viability screening (CellTiter Glo), HAP1 SLC16A1-/- cells (SLC16A3-dependent); assay type: cell-based; details: for viability at 10 µM / IC50: Homo sapiens; for viability at 10 µM: read-out: HAP1 SLC16A1^−/− % of viability; for IC50: from dose response curves
Protocol: (§1) Compounds were printed to individual wells of 384 well plates (Corning) with Echo acoustic liquid dispenser (Labcyte). HAP1 cells were seeded using a dispenser (Thermo Fischer Scientific) in density 1,000 cells per well in 50 μl. As controls, DMSO or Bortezomib treatments were used. Viability of cells was assessed after 72 hours with CellTiter Glo (Promega) and % of controls were calculated based on RLU values in DMSO (100%) and Bortezomib (0%) wells. First screening was performed in 10 μM final concentration. Second screening was performed in technical duplicates, in 4 point dose response setting, with concentrations ranging from 13-0.5 μM. Third screening was performed in technical triplicates in 6 point dose response setting, with concentrations ranging from 27-0.11 μM. LAMA84 cells were used in density 3,000 cells per well. AZD3965, BAY-8002, syrosingopine and compounds obtained from third party vendors were tested in 96 well plates, with 2,500 cells per well with manual seeding and treatment. Compound efficacy was determined either by comparing % of control, or by IC50 estimation based on dose response curves (calculated with R package drc, or with GraphPad Prism).
(§2) Table 1: Results of synthetic lethality guided chemical screening assay. HAP1 WT, HAP1 SLC16A1^−/− or HAP1 SLC16A3^−/− cell lines were treated with presented compounds for 72 hours and viability was determined by Cell titer glo assay (Promega). Data are presented either as a percentage of viability in HAP1 SLC16A1^−/− cells compared to controls (DMSO=100% and Bortezomib=0%) upon single dose treatment (10 μM) or as IC50 values obtained from dose response curves.

[2] = tested on: HAP1 WT cells; test: Synthetic lethality guided viability screening (CellTiter Glo), HAP1 WT cells; assay type: cell-based; details: Homo sapiens, 72 hours, Cell titer glo, from dose response curves
Protocol: as §1, §2

[3] = tested on: HAP1 SLC16A3^−/− cells; test: Synthetic lethality guided viability screening (CellTiter Glo), HAP1 SLC16A3-/- cells (SLC16A1-dependent); assay type: cell-based; details: for IC50: Homo sapiens, HAP1, 72 hours, Cell titer glo, from dose response curves, read-out: HAP1 SLC16A31^−/− IC50
Protocol: as §1, §2

[4] = tested on: HAP1 dependent on SLC16A7; test: Viability of HAP1 cells dependent on SLC16A7; assay type: cell-based; details: SLC16A7 overexpressed in HAP1 SLC16A3^−/−, SLC16A1 knocked out
Source text: To test this, the inventors overexpressed SLC16A7 or SLC16A8 in HAP1 SLC16A3^−/− cells and knocked out SLC16A1 using CRISPR/Cas9. […]

[5] = tested on: NCIH441 cells; test: Lactate Glo lactate accumulation, NCIH441 lung cancer cells; assay type: cell-based; details: 10 μM, 6 hours
Protocol: (§3) Protocol for lactate glo was modified based on Benjamin D et al., Cell Reports, 2018, 25(11):3047-3058.e4. Cells were seeded in 96 well plate in density 30,000 cells per well. Next day cells were treated with tested compounds, AZD3965 and syrosingopine (all in final concentration of 10 μM) or DMSO. After 6 hours of incubation at 37° C., cells were washed twice with PBS, lysed with 0.2N HCl, neutralized with 1M Tris-base (Sigma) and incubated for 1 hour at RT with lactate glo reagents (Promega). Lactate accumulation was then estimated based on luminescence signal.

[6] = tested on: NCIH358 cells; test: Lactate Glo lactate accumulation, NCIH358 lung cancer cells; assay type: cell-based; details: 10 μM, 6 hours
Protocol: as §3

[7] = tested on: HAP1 SLC16A1^−/− cells; test: Growth curve, HAP1 SLC16A1-/- cells; assay type: cell-based; details: different concentrations; counted 24 h, 48 h, 72 h
Protocol: Cells were seeded in 6 well plate in density of 15,000 cells per well in the presence of different concentrations of tested compounds in DMSO, or matching DMSO concentrations. Cells were washed with PBS, harvested with trypsin and counted with CASY counter (Roche) 24 h, 48 h and 72 h after the seeding. Cell number obtained at 24 h was set as 0, for each time point and concentration two wells were harvested and counted.

[8] = tested on: HAP1 SLC16A1^−/− cells; test: Lactate Glo lactate accumulation, HAP1 SLC16A1-/- cells; assay type: cell-based; details: 10 μM, 6 hours
Protocol: as §3

[9] = tested on: HAP1 SLC16A3^−/− cells; test: Lactate Glo lactate accumulation, HAP1 SLC16A3-/- cells; assay type: cell-based; details: 10 μM, 6 hours
Protocol: as §3

[10] = biological target: T1, SLC16A3 (Homo sapiens, UniProt O15427); test: Cellular Thermal Shift Assay (CETSA), HEK293T lysates with HIBIT-tagged SLC16A3; assay type: binding; details: HEK293T lysate, HIBIT-tagged SLC16A3, split-nano luciferase readout
T1 construct: expressed in transfected cells; lysate supernatant used
T1 sequence (O15427 1-465): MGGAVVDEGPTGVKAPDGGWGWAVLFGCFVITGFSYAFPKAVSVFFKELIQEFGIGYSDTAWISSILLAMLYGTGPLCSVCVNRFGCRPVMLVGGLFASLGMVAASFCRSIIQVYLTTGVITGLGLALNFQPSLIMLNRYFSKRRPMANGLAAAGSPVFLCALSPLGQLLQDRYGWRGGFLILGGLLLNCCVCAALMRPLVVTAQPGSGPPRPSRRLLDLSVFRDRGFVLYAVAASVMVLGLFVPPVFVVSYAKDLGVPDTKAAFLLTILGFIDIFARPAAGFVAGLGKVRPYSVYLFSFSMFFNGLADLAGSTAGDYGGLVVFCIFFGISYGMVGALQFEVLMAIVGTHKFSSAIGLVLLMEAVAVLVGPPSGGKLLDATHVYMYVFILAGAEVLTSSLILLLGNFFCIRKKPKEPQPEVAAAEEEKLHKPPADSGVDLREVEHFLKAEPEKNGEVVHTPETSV
Protocol: HEK293T cells with stable expression of HIBIT-tagged SLC16A3 were lysed as described in Hashimoto M et al., ACS Chemical Biology, 2018, 13(6):1480-86. Lysates were then centrifugated at 14,000 RPM, 20 min at 4° C. Supernatant were next incubated with tested compounds or DMSO on ice for 1 hour. After that samples were aliquoted to PCR strips, heated in gradient thermocycler for 6 min and let cool down at room temperature (RT) for 3 min. Samples were then centrifugated at 14,000 RPM, 40 min at 4° C. and protein abundance in supernatants was determined using HIBIT lytic detection system (Promega) in 384 well plate. Reagents for HIBIT detection were diluted in lysis buffer (Hashimoto M et al., loc. cit.) instead of buffer provided with kit. All measurements were done in technical triplicate.

[11] = tested on: cells dependent on SLC16A3 in HAP1 and LAMA84 cell lines; test: Selectivity counter screen, HAP1 and LAMA84 cell line panel; assay type: cell-based; details: panel incl. LAMA84 sgRen/sgSLC16A1/sgSLC16A3, HAP1 dependent on SLC16A7 or SLC16A8, rescue lines
Protocol: as §1
To get further insights into the selectivity and mode of action of these hits, the inventors created a selection of compounds with similar structure to their hits from the whole library and tested those further. […]

[12] = HAP1, single dose 10 μM, 72 hours, Cell titer glo, compared to controls DMSO=100%, Bortezomib=0%

SMILES | IC50 [2] | IC50 ([1]; HAP1, 72 hours, Cell titer glo) | IC50 [3] | also measured
Cc1nc2nc(C)c(CCC(=O)Nc3ccc(Br)c(C)c3)c(C)n2n1 [Compound 11] | – | – | – | viability at 10 µM [1, 12]: 33.7%
Cc1nc2nc(C)c(CCC(=O)Nc3ccc(Br)cc3)c(C)n2n1 [Compound 16] | – | – | – | viability at 10 µM [1, 12]: 38.7%
Cc1nc2nc(C(F)(F)F)nn2c(C)c1CCC(=O)Nc1ccccc1 [Compound 19] | > 30 µM | 8.94 µM | > 30 µM | –
Cc1nc2nc(C(F)(F)F)nn2c(C)c1CCC(=O)Nc1cccnc1 [Compound 18] | > 30 µM | 8.41 µM | > 30 µM | –
CCOc1ccc(NC(=O)CCc2c(C)nc3ncnn3c2C)cc1 [Compound 10] | > 30 µM | 7.07 µM | > 30 µM | viability at 10 µM [1, 12]: 70.8%
Cc1nc2ncnn2c(C)c1CCC(=O)Nc1ccc(S(=O)(=O)N2CCCCCC2)cc1 [Compound 9] | > 30 µM | 1.98 µM | > 30 µM | –
CCOc1ccc(NC(=O)CCc2c(C)nc3nc(C)nn3c2C)cc1 [Compound 15] | – | – | – | viability at 10 µM ([1]; HAP1, 72 h): 38.5%
O=C(Nc1ccccc1C(=O)O)c1cc(S(=O)(=O)c2ccccc2)ccc1Cl [BAY-8002, reference compound] | – | – | – | killing of HAP1 cells dependent on SLC16A7 (in words) [4]: can be killed; effect on viability of HAP1 SLC16A3^−/− cells (in words) [3]: reduced viability
CCc1ccc(NC(=O)CCc2c(C)nc3nc(C)nn3c2C)cc1 [Compound 14] | – | – | – | viability at 10 µM [1, 12]: 37.5%
COc1ccc(NC(=O)CCc2c(C)nc3nc(C)nn3c2C)cc1 [Compound 17] | – | – | – | viability at 10 µM ([1]; HAP1, 72 h): 44.4%
Cc1nc2nc(C(F)(F)F)nn2c(C)c1CCC(=O)Nc1cnc2ccccc2c1 [Compound 8] | > 30 µM | 0.25 µM | > 30 µM | lactate accumulation in NCIH441 cells [5]: confirmed the lactate accumulation in both cell lines; lactate accumulation in NCIH358 cells [6]: confirmed the lactate accumulation in both cell lines; growth rate / proliferation of HAP1 SLC16A1^−/− cells [7]: confirmed the growth reducing effect; also recorded: slowed down the proliferation in a dose-dependent manner
Cc1nc2nc(C(F)(F)F)nn2c(C)c1CCC(=O)Nc1ccc(S(=O)(=O)N2CCCC2)cc1 [Compound 6] | > 30 µM | 0.41 µM | > 30 µM | –
CSc1nc2nc(C)c(CCC(=O)Nc3ccc(C)cc3)c(C)n2n1 [Compound 3] | > 30 µM | 2.34 µM | > 30 µM | –
Cc1nc2nc(C)c(CCC(=O)Nc3ccc(C)c(C)c3)c(C)n2n1 [Compound 13] | – | – | – | lactate accumulation in HAP1 SLC16A1^−/− cells [8]: lactate accumulation comparable to control (syrosingopine); also recorded: significant lactate accumulation was observed; lactate accumulation in HAP1 SLC16A3^−/− cells [9]: no accumulation was observed; also recorded: did not affect lactate accumulation; viability at 10 µM [1, 12]: 37%; shift in melting temperature of SLC16A3 (CETSA) [10]: showed a shift in melting temperature of SLC16A3; selective killing in HAP1 and LAMA84 cell line panel (in words) [11]: selectively kill only cells dependent on SLC16A3
Cc1cc(C)cc(NC(=O)CCc2c(C)nc3nc(C(F)(F)F)nn3c2C)c1 [Compound 2] | > 30 µM | 4.13 µM | > 30 µM | –
CSc1nc2nc(C)c(CCC(=O)Nc3cc(C)cc(C)c3)c(C)n2n1 [Compound 4] | > 30 µM | 1.83 µM | > 30 µM | –
Cc1[nH]nc(C(F)(F)F)c1Cc1sc2c(c1C(=O)N1C[C@](C)(O)CO1)c(=O)n(C)c(=O)n2C(C)C [AZD3965, reference compound] | – | – | – | killing of HAP1 cells dependent on SLC16A7 (in words) [4]: can be killed; effect on viability of HAP1 SLC16A3^−/− cells (in words) [3]: reduced viability
Cc1ccc(NC(=O)CCc2c(C)nc3nc(C(F)(F)F)nn3c2C)cc1 [Compound 1] | > 30 µM | 3.32 µM | > 30 µM | –
Cc1nc2nc(C(F)(F)F)nn2c(C)c1CCC(=O)Nc1ccncc1 [Compound 7] | > 30 µM | 11.2 µM | > 30 µM | –
Cc1cc(NC(=O)CCc2c(C)nc3nc(C(F)(F)F)nn3c2C)ccc1N1CCN(C)CC1 [Compound 5] | > 30 µM | 5.87 µM | > 30 µM | –
CCOC(=O)Oc1c(OC)cc(C(=O)O[C@@H]2C[C@@H]3CN4CCc5c([nH]c6cc(OC)ccc56)[C@H]4C[C@@H]3[C@H](C(=O)OC)[C@H]2OC)cc1OC [syrosingopine, reference compound] | – | – | – | effect on viability of HAP1 SLC16A1^−/− cells (in words) [1]: decreased viability
CCc1cccc(NC(=O)CCc2c(C)nc3nc(C)nn3c2C)c1 [Compound 12] | – | – | – | viability at 10 µM [1, 12]: 36.4%
